Reference: patent EP0540143B1, “Compounds and methods for inhibition of HIV and related viruses” (priority 1991, dated 1993)
Values joined by “and” are separate entries in the source; they are usually repeats but may differ in a detail not shown here. Identical values can stand only once.

Assays:
MT4 cells = test: Test D (XTT), MT4 cells, no virus; assay type: cell-based; conditions: Homo sapiens
Description: (§1) Tests A, B, C, and D (XTT)
(§2) MT4 cells in a medium of RPMI 1640, 5% FCS, penicillin/streptomycin are adjusted to 2x10^5 cells/ml and seeded into microplates (96 wells/plate) 100 µl cell suspension/well giving 2x10^4 cells/well. The compound to be tested is made into a 10 mg/ml mixture in DMSO and stored at -20°C. The compound in DMSO is diluted with medium containing 10% DMSO in a 10-fold dilution series to give 1 mg/ml, 10 mg/ml, and […] solutions. Further dilutions to 400, 40, 4 and 0.4 mg/ml are made in medium containing microplates. Fifty µl of the 400, 40, and 4 mg/ml are transferred to the cell-containing microplates with a multi-channel pipette (final concentration: 100, 10, and 1 mg/ml). Finally, 50 µl of virus suspension is added to each well (with a repetitive "Eppendorf" multipipett). Each plate has at least six wells with the following: [Test A: HIV virus; Test B: HIV(II) virus; Test C: SIV virus; Test D: No virus]; with no drug (virus control) and six wells without virus (medium control). The plate is put into a plastic bag and incubated for six days in CO2 atmosphere. To each well in the plate is added 50 µl of XTT ((2,3-bis[2-methoxy-4-nitro-5-sulfophenyl]-5-[(phenylamino)carbonyl]-2H-tetrazolium hydroxide), (1 mg/ml 0.01-0.02 mM N-metyl-phenazonium methosulfate). After six hours of incubation in CO2 atmosphere the plates are covered with adhesive plate sealers and gently mixed on a vortex. Optical densities are determined at a wavelength of 450 nm and a reference wavelength of 650 nm. The percent reduction of cytotoxocity caused by the virus infection is calculated as follows: (OD450 compound - OD450 inf cells)/(OD450 uninf cells - OD450 inf cells)x 100 [formula]

HIV-1 = test: Test E (HIV-1 RT), RT activity in supernatant of infected MT-4/H9 cells; assay type: cell-based; conditions: for inhibition at 0.1 µg/mL / inhibition at 1 µg/mL / inhibition at 10 µg/mL / inhibition at 100 µg/mL: Human immunodeficiency virus 1, H9, Test E
Description: (§3) Tests E, F, G, H (HIV-IRT, HIV-2RT, SIVRT, no virus)
(§4) MT-4/H9-cells are adjusted to 2x10^5 cells/ml medium (RPMI 1640, 5% FCS, penicillin/streptomycin) and seeded into microplates (96 wells/plate) […] cell suspension/well giving 2 x 10^4 cells/well. The compound to be tested is made 10 mg/ml in DMSO = stock solution (stored at -20°C). The compound dissolved in DMSO is diluted 25 times in medium to give 400 mg/ml. Further dilutions to 40 mg/ml and 4 mg/ml are made in microplates.
(§5) 50 µl of the dilutions 400 mg/ml, 40 mg/ml and 4mg/ml are transferred to the "cell-containing" microplate with a multichannel pipette. […]
(§6) Finally 50 µl of virus suspension is added to each well (with a repetitive "Eppendorf multipett"). [Test E-HIV-1; Test F-HIV-2; Test G-SIV; Test H-no virus].
(§7) Each plate has at least four wells with virus but no drug (virus control) and two wells without virus (medium control). The plate is put into a plastic bag to avoid evaporation and incubated for six days in CO2-atmosphere. 10 µl supernatant from each well is transferred with a multichannel pipette into a new microplate to which 40 ml VDB, (50 mM Tris-HCl pH = 7.6, 35 mM KCl, 4 mM DTT, 1 mM EDTA, 1.3% Triton X-100), have been added to each well. The addition of 50 ml RT-reaction mix, (10 ml culture supernatant, 40 ml VDB and 50 ml reaction mixture giving a final concentration of: 100 mM Tris-HCl pH = 7.6, 100 mM KCl, 4 mM MgCl2, 4 mM DTT, 275 mg/ml BSA/ml, 5 mg (rA)n(dT)12-18/ml and 0.3 mM ^3H dTTP (specific activity 18.000 cpm/pmol)) gives a final volume of […]/well. After 60 minutes of incubation the whole assay volume is transferred by use of a cell harvester to a filter mat prewetted with 5% TCA. The filter is washed in 5% TCA and rinsed once in ethanol. After drying the filter mat at 60°C for 30 min. each filter (96/mat) is punched out and put into counting vials 2 ml of scintillation fluid is added and the samples are counted (1 min) or the whole filter mat is put into a plastic bag, 10 ml of scintillation fluid is added and the filter mat is counted in a Beckman Betaplate counter. Percent reduction of RT activity is determined by comparing RT activity for virus control with the RT activity measured for each dilution of the compound.

HIV virus = test: Test A (XTT), MT4 cells infected with HIV; assay type: cell-based; conditions: for inhibition at 0.1 µg/mL / inhibition at 10 µg/mL / inhibition at 100 µg/mL / inhibition at 1 µg/mL: Human immunodeficiency virus 1, MT4, Test A; for % inhibition: Test A
Description: as §1, §2

SIV virus = test: Test C (XTT), MT4 cells infected with SIV; assay type: cell-based; conditions: for inhibition at 1 µg/mL / inhibition at 10 µg/mL / inhibition at 100 µg/mL / inhibition at 0.1 µg/mL: Simian immunodeficiency virus, MT4, Test C; for % inhibition: Test C
Description: as §1, §2

HIV-2 = test: Test F (HIV-2 RT), RT activity in supernatant of infected MT-4/H9 cells; assay type: cell-based; conditions: for inhibition at 0.1 µg/mL / inhibition at 1 µg/mL / inhibition at 10 µg/mL / inhibition at 100 µg/mL: Human immunodeficiency virus 2, H9, Test F; for % inhibition: Test F
Description: as §3, §4, §5, §6, §7

HIV(II) virus = test: Test B (XTT), MT4 cells infected with HIV(II); assay type: cell-based; conditions: for inhibition at 0.1 µg/mL / inhibition at 1 µg/mL / inhibition at 10 µg/mL / inhibition at 100 µg/mL: Human immunodeficiency virus 1, MT4, Test B
Description: as §1, §2

recombinant HIV-RT = recombinant HIV-RT (Human immunodeficiency virus type 1 group M subtype B, UniProt P04585); test: Test I (HIVRT (rAdt)), direct inhibition of recombinant HIV-RT; assay type: biochemical
Description: The compounds were tested for direct inhibitory activity on HIV-RT in a volume of […] recombinant HIV-RT (diluted in virus disruption buffer to give 200.000 cpm).
100 mM Tris-HCl pH 7.6, 100 mM KCl, 4 mM MgCl2, 4 mM DTT, 275 mg/ml BSA, 0.5 mg (rA)n(dT)12-18 and 0.3 mM ^3H- dTTP (specific activity […]). After 60 minutess of incubation 40 ml in duplicate were spotted on paper discs and washed in 5% TCA. After rinsing the paper discs in ethanol they were dried and counted in scintillation fluid.

Compound	inhibition at 10 µg/mL (MT4 cells) [%]	inhibition at 100 µg/mL (MT4 cells) [%]	inhibition at 0.1 µg/mL (HIV-1; 0.1 µg/ml) [%]	inhibition at 1 µg/mL (HIV-1) [%]	inhibition at 10 µg/mL (HIV-1) [%]	inhibition at 100 µg/mL (HIV-1) [%]	inhibition at 10 µg/mL (HIV virus; 10 µg/ml) [%]	inhibition at 100 µg/mL (HIV virus; 100 µg/ml) [%]	% inhibition (HIV virus; 10 µg/ml)	inhibition at 1 µg/mL (SIV virus; 1 µg/ml) [%]	inhibition at 10 µg/mL (SIV virus) [%]	inhibition at 100 µg/mL (SIV virus) [%]	inhibition at 0.1 µg/mL (HIV-2) [%]	inhibition at 1 µg/mL (HIV-2; 1 µg/ml) [%]	inhibition at 10 µg/mL (HIV-2; 10 µg/ml) [%]	inhibition at 100 µg/mL (HIV-2; 100 µg/ml) [%]	inhibition at 0.1 µg/mL (recombinant HIV-RT; 0.1 µg/ml) [%]	inhibition at 1 µg/mL (recombinant HIV-RT; 1 µg/ml) [%]	inhibition at 10 µg/mL (recombinant HIV-RT; 10 µg/ml) [%]	inhibition at 1 µg/mL (MT4 cells) [%]	further results
Cc1nc(NC(=S)NCCc2ccccc2)sc1C	0	0	1	23	91	94	85	99	88%	0	1	0	1	92	61	93	34	39	38	–	inhibition at 0.1 µg/mL (HIV virus; 0.1 µg/ml): 7%; % inhibition (HIV virus; 100 µg/ml): 100%; inhibition at 0.1 µg/mL (HIV(II) virus): 13%; inhibition at 1 µg/mL (HIV(II) virus; 1 µg/ml): 100%; inhibition at 10 µg/mL (HIV(II) virus): 100%; inhibition at 100 µg/mL (HIV(II) virus): 85%
FC(F)(F)c1csc(NC(=S)NCCc2ccccc2)n1	75	68	98	97	96	97	24	–	16% and 31%	11	5	43	56	95	98	96	63	73	73	46	inhibition at 0.1 µg/mL (MT4 cells): 0%; % inhibition (HIV virus; 0.1 µg/ml): 62% and 84%; % inhibition (HIV virus; 1 µg/ml): 100% and 75% and 84%; inhibition at 0.1 µg/mL (SIV virus; 0.1 µg/ml): 9%; inhibition at 0.1 µg/mL (HIV(II) virus): 21%; inhibition at 1 µg/mL (HIV(II) virus; 1 µg/ml): 100%; inhibition at 10 µg/mL (HIV(II) virus): 38%; inhibition at 100 µg/mL (HIV(II) virus): 19%; % inhibition (recombinant HIV-RT; 0.1 µg/ml): 68%; % inhibition (recombinant HIV-RT; 1 µg/ml): 75%; % inhibition (recombinant HIV-RT; 10 µg/ml): 75%
S=C(NCCc1ccccc1)Nc1nc2ccccc2s1	27	23	1	77	96	95	100	–	99%	0	1	8	1	87	84	96	39	36	40	32	inhibition at 0.1 µg/mL (HIV virus; 0.1 µg/ml): 0%; inhibition at 1 µg/mL (HIV virus; 1 µg/ml): 63%; % inhibition (HIV virus; 1 µg/ml): 53%; inhibition at 0.1 µg/mL (HIV(II) virus): 17%; inhibition at 1 µg/mL (HIV(II) virus; 1 µg/ml): 99%; inhibition at 10 µg/mL (HIV(II) virus): 100%; inhibition at 100 µg/mL (HIV(II) virus): 50%
S=C(NCCc1ccccc1)Nc1nnc[nH]1	33	0	–	–	–	–	27	45	–	5	8	15	–	–	–	–	12	14	14	33	inhibition at 0.1 µg/mL (MT4 cells): 15%; inhibition at 1 µg/mL (HIV virus; 1 µg/ml): 11%
N#Cc1csc(NC(=S)NCCc2ccccc2)n1	70	93	99	98	98	98	0	0	–	5	2	0	67	91	94	96	72	93	94	53	inhibition at 0.1 µg/mL (MT4 cells): 0%; inhibition at 0.1 µg/mL (HIV virus; 0.1 µg/ml): 84%; inhibition at 1 µg/mL (HIV virus; 1 µg/ml): 51%; % inhibition (HIV virus; 1 µg/ml): 63%; inhibition at 0.1 µg/mL (SIV virus; 0.1 µg/ml): 11%; inhibition at 0.1 µg/mL (HIV(II) virus): 74%; inhibition at 1 µg/mL (HIV(II) virus; 1 µg/ml): 90%; inhibition at 10 µg/mL (HIV(II) virus): 0%; inhibition at 100 µg/mL (HIV(II) virus): 0%; % inhibition (recombinant HIV-RT; 0.1 µg/ml): 73%; % inhibition (recombinant HIV-RT; 1 µg/ml): 95%; % inhibition (recombinant HIV-RT; 10 µg/ml): 95%
S=C(NCCc1ccccc1)Nc1nccs1 [the 1st table, row 1]	33	45	–	99	99	99	–	48	99% and 100% and 70% and 98%	–	–	–	43	75	57	95	–	–	–	18	inhibition at 0.1 µg/mL (MT4 cells): 31%; % inhibition (HIV-1; Test E, 0.1 µg/ml): 10% and 1%; % inhibition (HIV virus; 0.1 µg/ml): 4%; % inhibition (HIV virus; 100 µg/ml): 58% and 64%; % inhibition (SIV virus; 0.1 µg/ml): 0% and 1%; % inhibition (SIV virus; 1 µg/ml): 0% and 8% and 2%; % inhibition (HIV-2; 1 µg/ml): 79%; % inhibition (HIV-2; 10 µg/ml): 76%; % inhibition (HIV-2; 100 µg/ml): 86%; % inhibition (HIV(II) virus; Test B, 1 µg/ml): 0%
